Experimental data as given in ChEMBL document CHEMBL1154377, “Evaluation of basic, heterocyclic ring systems as templates for use as potassium competitive acid blockers (pCABs)” (Bioorg Med Chem Lett, 2009).

How the values were obtained:
[1] = Inhibition of H+/K+ ATPase in parietal cells assessed as inhibition of histamine-stimulated [14C]aminopyrine accumulation
CYP2D6 = CYP2D6 (Homo sapiens, UniProt P10635); experiment: Inhibition of CYP2D6 assessed as ratio of IC50 at 0 mins to IC50 at 10 mins; format: ADME; settings: read-out: Ratio IC50
Chain of CYP2D6 (P10635 whole entry): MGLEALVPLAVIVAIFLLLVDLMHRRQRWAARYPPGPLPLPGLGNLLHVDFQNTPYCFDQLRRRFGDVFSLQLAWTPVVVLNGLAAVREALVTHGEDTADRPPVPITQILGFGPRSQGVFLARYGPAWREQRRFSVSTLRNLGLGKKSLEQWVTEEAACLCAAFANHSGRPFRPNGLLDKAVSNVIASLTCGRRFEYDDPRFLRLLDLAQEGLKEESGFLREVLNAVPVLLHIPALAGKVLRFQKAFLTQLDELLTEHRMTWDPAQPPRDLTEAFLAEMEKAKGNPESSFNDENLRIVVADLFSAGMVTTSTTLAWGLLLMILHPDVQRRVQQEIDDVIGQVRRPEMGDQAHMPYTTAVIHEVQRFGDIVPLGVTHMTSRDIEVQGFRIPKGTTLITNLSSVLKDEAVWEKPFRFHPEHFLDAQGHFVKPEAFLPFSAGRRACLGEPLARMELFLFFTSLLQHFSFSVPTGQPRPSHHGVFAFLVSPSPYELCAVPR

Cytochrome P450 2C19 = Cytochrome P450 2C19 (Homo sapiens, UniProt P33261); experiment: Inhibition of CYP2C19; format: ADME
Chain of Cytochrome P450 2C19 (P33261 whole entry): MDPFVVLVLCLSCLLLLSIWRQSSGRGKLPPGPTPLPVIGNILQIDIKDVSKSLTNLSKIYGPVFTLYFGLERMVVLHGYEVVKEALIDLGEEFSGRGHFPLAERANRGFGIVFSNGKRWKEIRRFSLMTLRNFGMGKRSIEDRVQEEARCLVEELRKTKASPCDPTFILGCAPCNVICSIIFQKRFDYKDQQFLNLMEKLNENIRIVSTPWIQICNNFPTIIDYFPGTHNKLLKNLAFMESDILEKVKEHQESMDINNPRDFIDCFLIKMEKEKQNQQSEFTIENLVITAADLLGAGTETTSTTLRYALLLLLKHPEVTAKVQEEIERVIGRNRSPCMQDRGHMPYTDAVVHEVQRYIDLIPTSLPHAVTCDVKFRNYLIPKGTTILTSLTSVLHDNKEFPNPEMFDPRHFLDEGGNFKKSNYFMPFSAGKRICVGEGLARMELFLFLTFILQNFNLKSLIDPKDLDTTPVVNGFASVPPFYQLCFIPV

Cytochrome P450 2D6 = Cytochrome P450 2D6 (Homo sapiens, UniProt P10635); experiment: Inhibition of CYP2D6; format: ADME
Chain of Cytochrome P450 2D6 (P10635 whole entry): as the sequence (P10635 whole entry) above

[2] = Intrinsic clearance in dog liver microsomes; format: ADME, Canis lupus familiaris, Microsome
[3] = Intrinsic clearance in human liver microsomes; format: ADME, Microsome
Cytochrome P450 3A4 [4] = target: T1, Cytochrome P450 3A4 (Homo sapiens, UniProt P08684); experiment: Inhibition of CYP3A4 using 7-benzyloxyquinoline substrate; format: ADME
T1 sequence (P08684 whole entry): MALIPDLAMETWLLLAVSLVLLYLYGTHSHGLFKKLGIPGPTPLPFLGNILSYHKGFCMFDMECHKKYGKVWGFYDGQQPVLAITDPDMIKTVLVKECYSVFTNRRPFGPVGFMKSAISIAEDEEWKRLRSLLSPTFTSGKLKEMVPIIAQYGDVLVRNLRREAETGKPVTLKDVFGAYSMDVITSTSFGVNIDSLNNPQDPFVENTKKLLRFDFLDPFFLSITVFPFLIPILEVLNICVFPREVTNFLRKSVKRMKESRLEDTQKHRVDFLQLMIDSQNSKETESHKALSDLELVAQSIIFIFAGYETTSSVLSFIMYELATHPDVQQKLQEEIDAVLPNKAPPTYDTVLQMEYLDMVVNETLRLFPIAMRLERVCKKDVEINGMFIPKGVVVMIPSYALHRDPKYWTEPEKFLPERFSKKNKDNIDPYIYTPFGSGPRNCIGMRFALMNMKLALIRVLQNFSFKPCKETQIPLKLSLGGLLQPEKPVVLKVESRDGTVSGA

Cytochrome P450 1A2 = target: T2, Cytochrome P450 1A2 (Homo sapiens, UniProt P05177); experiment: Inhibition of CYP1A2; format: ADME
T2 sequence (P05177 whole entry): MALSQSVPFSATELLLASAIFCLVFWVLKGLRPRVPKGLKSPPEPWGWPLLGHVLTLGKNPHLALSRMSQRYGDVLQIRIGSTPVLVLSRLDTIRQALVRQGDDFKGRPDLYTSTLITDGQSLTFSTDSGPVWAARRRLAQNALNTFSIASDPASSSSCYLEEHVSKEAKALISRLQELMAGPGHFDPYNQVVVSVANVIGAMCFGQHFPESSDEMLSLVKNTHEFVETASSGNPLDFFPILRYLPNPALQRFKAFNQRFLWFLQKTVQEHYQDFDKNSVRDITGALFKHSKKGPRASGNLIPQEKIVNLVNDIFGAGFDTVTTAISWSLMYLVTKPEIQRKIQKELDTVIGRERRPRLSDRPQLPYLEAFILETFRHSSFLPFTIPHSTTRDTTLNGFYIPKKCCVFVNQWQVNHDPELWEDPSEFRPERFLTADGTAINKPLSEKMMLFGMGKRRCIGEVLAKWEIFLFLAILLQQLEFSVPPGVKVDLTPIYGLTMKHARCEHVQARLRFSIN

Cytochrome P450 3A4 [5] = target: T1, Cytochrome P450 3A4; experiment: Inhibition of CYP3A4 using diethoxyfluorescein substrate; format: ADME
[6] = Inhibition of H+/K+ ATPase at pH 7.4
[7] = Intrinsic clearance in rat liver microsomes; format: ADME, Microsome
Cytochrome P450 2C9 = Cytochrome P450 2C9 (Homo sapiens, UniProt P11712)
Chain of Cytochrome P450 2C9 (P11712 whole entry): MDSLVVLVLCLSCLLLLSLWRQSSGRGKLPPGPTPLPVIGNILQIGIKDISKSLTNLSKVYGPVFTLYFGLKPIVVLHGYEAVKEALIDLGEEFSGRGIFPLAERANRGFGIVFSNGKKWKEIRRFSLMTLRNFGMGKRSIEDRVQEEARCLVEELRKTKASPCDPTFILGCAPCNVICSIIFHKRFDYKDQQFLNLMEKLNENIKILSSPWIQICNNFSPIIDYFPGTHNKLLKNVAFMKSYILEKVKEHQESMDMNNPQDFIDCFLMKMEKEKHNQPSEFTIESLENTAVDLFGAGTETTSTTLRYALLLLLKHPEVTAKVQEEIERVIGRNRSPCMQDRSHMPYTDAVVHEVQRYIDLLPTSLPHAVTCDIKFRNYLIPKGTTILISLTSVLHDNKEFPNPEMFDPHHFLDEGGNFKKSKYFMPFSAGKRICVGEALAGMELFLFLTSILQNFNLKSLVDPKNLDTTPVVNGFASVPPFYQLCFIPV

CYP3A4 = CYP3A4 (Homo sapiens, UniProt P08684); experiment: Inhibition of CYP3A4 assessed as ratio of IC50 at 0 mins to IC50 at 10 mins using diethoxyfluorescein substrate; format: ADME; settings: probe diethoxyfluorescein; read-out: Ratio IC50
Chain of CYP3A4 (P08684 whole entry): as the sequence (P08684 whole entry) above

For `Cc1c(C)n(C[C@H]2C[C@@H]2C)c2c(OCc3ccc(F)cc3)nncc12`, the IC50 [1] was 0.282 µM, the IC50 shift (CYP2D6) was 0.6 and the IC50 (Cytochrome P450 2C19) was 5.1 µM. It also gave an IC50 (Cytochrome P450 2D6) of 4.4 µM, a CLint scaled [2] of 38 mL/min/kg and a CLint scaled [3] of 16 mL/min/kg. The IC50 (Cytochrome P450 3A4 [4]) was 14 µM, the IC50 (Cytochrome P450 1A2) was 1.2 µM and the IC50 (Cytochrome P450 3A4 [5]) was 6 µM. It also gave a pIC50 [6] of 6.8, a CLint scaled [7] of 30 mL/min/kg and an IC50 (Cytochrome P450 2C9) of 0.8 µM. For the same compound, the IC50 shift (CYP3A4) was 1.2.
